Several values for one entry are separate records, joined by “and”; a condition that tells them apart may be missing. Equal values may be shown once.
Key:
[1] = test system: Zika virus; test: (§1) Functional immunofluorescence assay to measure dose dependent changes in antiviral-drug inhibitory efficacy against Zika virus PRVABC59 in Vero E6/TMPRSS2 cells. Cells are treated with antiviral candidates that are serially diluted, following infection, cells are fixed. EC50 is reported via analysis of immunofluorescence staining. The assay has been performed by Icahn School of Medicine at Mount Sinai.; format: organism-based, Chlorocebus sabaeus; settings: for EC50: VeroE6/TMPRSS2
[2] = test system: dengue virus type 2; test: Functional CPE-based assay to measure dose dependent changes in antiviral-drug inhibitory efficacy against Dengue virus type 2 New Guinea C in Huh7 cells. Cells are treated with antiviral candidates that are serially diluted. EC50 is reported via analysis of MTT/MTS assay as a readout of CPE. The assay has been performed by National Institute of Allergy and Infectious Diseases.; format: organism-based, Homo sapiens; settings: Huh-7
[3] = test system: dengue virus type 2; test: as §1, with “Dengue” for “Zika”, “type 2 Thailand/16681/84” for “PRVABC59”; format: organism-based, Chlorocebus sabaeus
[4] = test system: dengue virus type 2; test: as §1, with “Dengue” for “Zika”, “type 2 Thailand/16681/84” for “PRVABC59”, “cells (cotreated with P-gp inhibitor, Elacridar).” for “cells.”; format: organism-based, Chlorocebus sabaeus, VeroE6/TMPRSS2
[5] = test system: Zika virus; test: EC50 is reported via analysis of immunofluorescence staining. The assay has been performed by Icahn School of Medicine at Mount Sinai.; format: functional, organism-based, Chlorocebus sabaeus, VeroE6/TMPRSS2
[6] = test system: dengue virus type 2; test: Functional assay to measure dose dependent changes in antiviral-drug inhibitory efficacy against Dengue virus type 2 New Guinea C in Vero E6 miRFP670 cells (cotreated with P-gp inhibitor, CP100356). Cells are treated with antiviral candidates that are serially diluted, following infection, cells are fixed. EC50 is reported via analysis of fluorescence intensity using high-content imager. The …; format: organism-based, Chlorocebus sabaeus, Vero C1008; settings: for EC90: Baseline response 0 %, Maximum response 100 %, P-gp concentration 500 nM, P-gp inhibitor CP100356
[7] = test system: Zika virus; test: (§2) Functional CPE-based assay to measure dose dependent changes in antiviral-drug inhibitory efficacy against Zika virus MR766 in Vero E6 miRFP670 cells. Cells are treated with antiviral candidates that are serially diluted. EC50 is reported via analysis of MTS assay as a readout of CPE. The assay has been performed by KU Leuven.; format: organism-based, Chlorocebus sabaeus, Vero C1008; settings: Zika virus; for EC50: Vero C1008
[8] = test system: Zika virus; test: as §2, with “cells (cotreated with P-gp inhibitor, CP100356).” for “cells.”; format: organism-based, Chlorocebus sabaeus, Vero C1008; settings: Zika virus, Vero C1008

## O=C(Nc1ccc2c(c1)B(O)OC2)c1cccc(OCc2c(Cl)cccc2Cl)c1
[1]
  EC50: 1.09 µM
[1]; VeroE6/TMPRSS2, Baseline response 0 %, Hill slope -0.477, Maximum measured 91.001 %, Maximum response 100 %, Minimum measured 4.308 %, R squared 0.689
  EC90: > 16.7 µM
[2]
  EC50: > 1.9 µM
[3]; VeroE6/TMPRSS2
  EC50: 0.155 µM
  EC90: 0.735 µM

## COc1cc(N[C@@H](C(=O)N2CCc3ccc(OC(F)(F)F)cc32)c2ccc(Cl)cc2)cc(OCCCC(=O)O)c1
[2]
  EC50: < 0.01 µM
[4]; Baseline response 0 %, Hill slope 0.035, Maximum measured 8.614 %, Maximum response 100 %, Minimum measured 2.814 %, P-gp concentration 2 uM, R squared 0.022, P-gp inhibitor Elacidar
  EC90: < 0.023 µM
[4]; Baseline response 0 %, Hill slope -0.067, Maximum measured 2.038 %, Maximum response 100 %, Minimum measured 0.482 %, P-gp concentration 2 uM, R squared 0.032, P-gp inhibitor Elacidar
  EC90: < 0.005 µM
[4]; Baseline response 0 %, Hill slope -0.192, Maximum measured 3.988 %, Maximum response 100 %, Minimum measured 0.35 %, P-gp concentration 2 uM, R squared 0.503, P-gp inhibitor Elacidar
  EC90: < 0.005 µM
[4]; veroe6/tmprss2
  EC50: < 0.005 µM
[5]; Zika virus, VeroE6/TMPRSS2
  EC50: > 10 µM
[5]; Zika virus, VeroE6/TMPRSS2, Maximum measured 96.7 %, Minimum measured 47.971 %, P-gp concentration 2 uM, P-gp inhibitor Elacidar
  EC90: > 10 µM
[5]; Zika virus, VeroE6/TMPRSS2, Maximum measured 158.114 %, Minimum measured 73.503 %, P-gp concentration 2 uM, P-gp inhibitor Elacidar
  EC90: > 10 µM
[5]; Zika virus, VeroE6/TMPRSS2, Baseline response 0 %, Hill slope -19.172, Maximum measured 90.933 %, Maximum response 60 %, Minimum measured 7.507 %, P-gp concentration 2 uM, R squared 0.342, P-gp inhibitor Elacidar
  EC90: > 16.7 µM
[5]; veroe6/tmprss2
  EC50: 15.1 µM
[6]; EC90 CI (lower) 26.978 uM, EC90 CI (upper) 1103.75 uM, Hill slope 1.671, Maximum measured 3.58 %, Minimum measured 0.058 %, R squared 0.662
  EC90: < 0.391 µM
[6]; Hill slope 0.149, Maximum measured 0.277 %, Minimum measured 0.08 %, R squared 0.031
  EC90: < 0.391 µM
[6]; Hill slope 0.294, Maximum measured 5.954 %, Minimum measured 0.022 %, R squared 0.035
  EC90: < 0.391 µM
[6]; Dengue virus, Vero C1008
  EC50: < 0.391 µM
[6]; Dengue virus, Vero C1008, Hill slope -0.103, Maximum measured 0.223 %, Minimum measured 0.035 %, R squared 0.026
  EC90: < 0.391 µM
[7]
  EC50: > 6.25 µM
[7]; Vero C1008, Baseline response 0 %, Hill slope 1.919, Maximum measured 39.533 %, Maximum response 100 %, Minimum measured 0.481 %, R squared 0.987
  EC90: > 6.25 µM
[7]; Vero C1008, Baseline response 0 %, Hill slope 2.194, Maximum measured 37.889 %, Maximum response 100 %, Minimum measured -0.884 %, R squared 0.976
  EC90: > 6.25 µM
[7]; Vero C1008, Baseline response 0 %, Hill slope 2.262, Maximum measured 0.1 %, Maximum response 100 %, Minimum measured -2.404 %, R squared 0.714
  EC90: > 6.25 µM
[8]
  EC50: > 6.25 µM
[8]; Baseline response 0 %, Hill slope 1.255, Maximum measured 36.243 %, Maximum response 100 %, Minimum measured 3.426 %, P-gp concentration 500 nM, R squared 0.925, P-gp inhibitor CP100356
  EC90: > 6.25 µM

## c1ccc2sc(C3CCN(Cc4c[nH]c5ccccc45)CC3)nc2c1
[2]
  EC50: > 18 µM
[4]; Baseline response 0 %, EC90 CI (lower) 2.225 uM, EC90 CI (upper) 16.418 uM, Hill slope -4.495, Maximum measured 125.314 %, Maximum response 100 %, Minimum measured 8.4 %, P-gp concentration 2 uM, R squared 0.582, P-gp inhibitor Elacidar
  EC90: 16.1 µM
[4]; Dengue virus, VeroE6/TMPRSS2
  EC90: 16.6 µM
[4]; veroe6/tmprss2
  EC50: 2.19 µM and 9.85 µM
[5]; Baseline response 0 %, EC90 CI (lower) 0.007 uM, EC90 CI (upper) 47.388 uM, Hill slope -1.134, Maximum measured 126.957 %, Maximum response 50 %, Minimum measured 1.357 %, P-gp concentration 2 uM, R squared 0.32, P-gp inhibitor Elacidar
  EC90: 28.6 µM
[5]; Zika virus, VeroE6/TMPRSS2
  EC50: 2.33 µM
[5]; Zika virus, VeroE6/TMPRSS2, Baseline response 0 %, Hill slope -0.408, Maximum measured 80.807 %, Maximum response 100 %, Minimum measured 15.814 %, P-gp concentration 2 uM, R squared 0.363, P-gp inhibitor Elacidar
  EC90: > 16.7 µM
[5]; veroe6/tmprss2
  EC50: 4.11 µM

## O=C(O)c1cc(Oc2ccc(F)cc2)c(F)cc1NS(=O)(=O)c1ccc(Oc2ccccc2Cl)cc1
[2]
  EC50: > 20 µM
[4]; Dengue virus, VeroE6/TMPRSS2
  EC50: > 16.7 µM
[4]; Dengue virus, VeroE6/TMPRSS2, Baseline response 0 %, Hill slope -0.235, Maximum measured 89.319 %, Maximum response 100 %, Minimum measured 56.356 %, P-gp concentration 2 uM, R squared 0.164, P-gp inhibitor Elacidar
  EC90: > 16.7 µM
[5]; Baseline response 0 %, Hill slope -0.477, Maximum measured 92.293 %, Maximum response 50 %, Minimum measured 32.859 %, P-gp concentration 2 uM, R squared 0.014, P-gp inhibitor Elacidar
  EC90: > 16.7 µM
[5]; Zika virus, VeroE6/TMPRSS2, Baseline response 0 %, Hill slope -0.324, Maximum measured 79.955 %, Maximum response 100 %, Minimum measured 28.499 %, P-gp concentration 2 uM, R squared 0.691, P-gp inhibitor Elacidar
  EC90: > 16.7 µM

## CCCC[C@H](NC(C)=O)C(=O)N[C@H](C(=O)NCc1ccc(C(N)=O)cc1)c1ccc(OCc2ccccc2)cc1
[2]
  EC50: 5.3 µM
[4]; Baseline response 0 %, Hill slope -0.583, Maximum measured 72.286 %, Maximum response 50 %, Minimum measured 22.28 %, P-gp concentration 2 uM, R squared 0.087, P-gp inhibitor Elacidar
  EC90: > 50 µM
[4]; Dengue virus, VeroE6/TMPRSS2, Baseline response 0 %, Hill slope -0.364, Maximum measured 95.574 %, Maximum response 100 %, Minimum measured 8.045 %, P-gp concentration 2 uM, R squared 0.69, P-gp inhibitor Elacidar
  EC90: > 50 µM
[5]; Zika virus, VeroE6/TMPRSS2
  EC50: > 50 µM
[5]; Zika virus, VeroE6/TMPRSS2, Maximum measured 173.346 %, Minimum measured 74.645 %, P-gp concentration 2 uM, P-gp inhibitor Elacidar
  EC90: > 50 µM
[5]; Zika virus, VeroE6/TMPRSS2, Baseline response 0 %, Hill slope 0.304, Maximum measured 106.185 %, Maximum response 100 %, Minimum measured 70.235 %, P-gp concentration 2 uM, R squared 0.184, P-gp inhibitor Elacidar
  EC90: > 50 µM

## O=C(NCC(F)(F)F)c1cc(Cl)c(F)cc1NS(=O)(=O)c1ccc(Oc2ccccc2Cl)cc1
[2]
  EC50: > 1.9 µM
[6]; Dengue virus, Vero C1008
  EC50: 3.79 µM
[6]; Dengue virus, Vero C1008, EC90 CI (lower) 2.885 uM, EC90 CI (upper) 3.374 uM, Hill slope -11.236, Maximum measured 107.639 %, Minimum measured 0.022 %, R squared 0.991
  EC90: 4.61 µM
[7]
  EC50: > 50 µM
[7]; Vero C1008, Maximum measured -0.734 %, Minimum measured -10.955 %
  EC90: > 50 µM

## c1cc(C2CCN(Cc3c[nH]c4ccccc34)CC2)c2ccncc2c1
[1]
  EC50: 7.01 µM
[1]; VeroE6/TMPRSS2, Baseline response 0 %, Hill slope -0.669, Maximum measured 111.623 %, Maximum response 100 %, Minimum measured 18.809 %, R squared 0.805
  EC90: > 50 µM
[2]
  EC50: 27 µM
[4]; Baseline response 0 %, EC90 CI (lower) 0 uM, EC90 CI (upper) 0.011 uM, Hill slope -0.624, Maximum measured 68.2 %, Maximum response 100 %, Minimum measured 5.474 %, P-gp concentration 2 uM, R squared 0.683, P-gp inhibitor Elacidar
  EC90: 1.58 µM
[4]; Baseline response 0 %, EC90 CI (lower) 0 uM, EC90 CI (upper) […] uM, Hill slope -0.4, Maximum measured 23.467 %, Maximum response 30 %, Minimum measured 3.547 %, P-gp concentration 2 uM, R squared 0.817, P-gp inhibitor Elacidar
  EC90: 16.1 µM
[4]; veroe6/tmprss2
  EC50: 0.047 µM and < 0.023 µM
[5]; Baseline response 0 %, Hill slope -0.578, Maximum measured 88.327 %, Maximum response 100 %, Minimum measured 9.758 %, P-gp concentration 2 uM, R squared 0.671, P-gp inhibitor Elacidar
  EC90: > 50 µM
[5]; Zika virus, VeroE6/TMPRSS2
  EC90: 25.3 µM
[6]; Dengue virus, Vero C1008
  EC50: 2.69 µM
[6]; Dengue virus, Vero C1008, EC90 CI (lower) 0.253 uM, EC90 CI (upper) 1.159 uM, Hill slope -1.373, Maximum measured 83.881 %, Minimum measured 4.274 %, R squared 0.884
  EC90: 13.3 µM
[3]; VeroE6/TMPRSS2
  EC50: 0.336 µM
[3]; VeroE6/TMPRSS2, Baseline response 0 %, EC90 CI (lower) 0 uM, EC90 CI (upper) 0.803 uM, Hill slope -0.593, Maximum measured 141.896 %, Maximum response 100 %, Minimum measured 11.317 %, R squared 0.319
  EC90: 13.6 µM

## CC1(C)Cc2sc(NC(=O)Cc3ccc(S(N)(=O)=O)cc3)c(C#N)c2CN1CC1CCCCC1
[2]
  EC50: < 0.01 µM
[6]; Dengue virus, Vero C1008
  EC50: < 0.391 µM
[6]; Dengue virus, Vero C1008, Hill slope -4.912, Maximum measured 6.91 %, Minimum measured 0.005 %, R squared 0.81
  EC90: < 0.391 µM
[7]
  EC50: > 50 µM
[7]; Vero C1008, Maximum measured -0.002 %, Minimum measured -8.758 %
  EC90: > 50 µM

## NCc1ccc(-c2ncc(OCC3CCNCC3)nc2-c2ccc(-c3ccoc3)cc2)cc1
[1]
  EC50: > 50 µM
[1]; VeroE6/TMPRSS2, Maximum measured 394.841 %, Minimum measured 61.013 %
  EC90: > 50 µM
[2]
  EC50: > 5.5 µM
[4]; Dengue virus, VeroE6/TMPRSS2
  EC50: 1 µM
[4]; Dengue virus, VeroE6/TMPRSS2, Baseline response 0 %, Hill slope -0.497, Maximum measured 90.326 %, Maximum response 100 %, Minimum measured 29.879 %, P-gp concentration 2 uM, R squared 0.819, P-gp inhibitor Elacidar
  EC90: > 16.7 µM
[5]; Zika virus, VeroE6/TMPRSS2
  EC50: 0.111 µM
  EC90: 16.5 µM
[3]; VeroE6/TMPRSS2
  EC50: 16.1 µM
[3]; VeroE6/TMPRSS2, Baseline response -26.43 %, Hill slope -19.353, Maximum measured 64.866 %, Maximum response 59.51 %, Minimum measured 1.549 %, R squared 0.583
  EC90: > 16.7 µM
